Entries after “also recorded” stand apart in the source; their conditions may differ.
Columns and labels:
eye bank eyes = test: Dye solution instilled by injection into the anterior chamber of eye bank eyes; staining and outflow seen by naked eye or operating microscope; set-up: species or system human; details: for Appearance (egress) of dye in the outflow vessels after injection into the anterior chamber: human eye bank eyes, Indigo Carmine 0.004, 0.04 and 0.4 wt. %
Source text: After an incision is made into the anterior chamber of the eye, a small amount of aqueous humor is expressed and the dye solution is instilled by injection into the anterior chamber. The dye solution is typically left in place for 30 seconds, during which time it stains the anterior capsule of the lens. Excess dye solution is then expelled, usually using a viscoelastic device or flushed out with a balanced salt solution.
Dye solutions containing 0.004 wt. %, 0.04 wt. %, and 0.4 wt. % of Indigo Carmine (prepared by serial dilutions of a 0.4 wt. % Indigo Carmine solution provided by Micro-Tech (Nanjing) Co.) were instilled by injection into the anterior chamber of seven eye bank eyes following the dye solution instillation procedure detailed above.
Special imaging techniques were not required.

[1] = system: ocular surface squamous neoplastic lesion; test: Topical application of dye to a human eye, slit lamp view; format: in vivo
Source text: FIG. 8 is a slit lamp view of a human eye wherein an ocular surface squamous neoplastic lesion is delineated after topical application of Indigo Carmine. A blue outline is seen around the perimeter of the white ocular surface squamous neoplastic lesion.

porcine eye = test: Dye injected into the lenticular plain after Small Incision Lenticule Extraction (SMILE)
Source text: FIG. 9A is an operating microscope view of a porcine eye upon which a Small Incision Lenticule Extraction procedure (SMILE) has been carried out. From this view, circular horizontal plains have been cut in the corneal stroma, a superficial smaller diameter cut and a deeper cut of larger diameter. The cuts join in the corneal periphery, thereby creating a lenticule. The arrows show the edge of these cuts.
FIG. 9B is an operating microscope view of a porcine eye upon which a Small Incision Lenticule Extraction procedure (SMILE) has been carried out. Indigo Carmine has been injected into the lenticular plain.

[2] = sodium salt; cited from earlier work
[3] = cited from earlier work
anterior capsule = details: cited from earlier work
ocular structures = details: cited from earlier work
[4] = anterior chamber perfused or injected with dye solution, sodium salt

## O=C1C(=C2Nc3ccc(S(=O)(=O)[O-])cc3C2=O)Nc2ccc(S(=O)(=O)[O-])cc21.[Na+].[Na+] [Indigo Carmine, 5,5′-indigodisulfonic acid sodium salt]
Eye bank eyes
  Diffusion of dye through tissues: generally does not diffuse through tissues
Eye bank eyes; [4]
  Staining of the canal of Schlemm: stains heavily; also recorded: heavy staining of Schlemm's canal
  Staining of the trabecular meshwork: stains the trabecular meshwork lightly; also recorded: more lightly stained
Eye bank eyes; at each concentration: 0.004 wt. %, 0.04 wt. %, 0.4 wt. %
  Visibility of dye in the collector channels on the surface of the eye after passing through the drainage system: visible to the naked eye of the surgeon
Eye bank eyes; sodium salt
  Appearance (egress) of dye in the outflow vessels after injection into the anterior chamber: appeared in the fine vessels in the conjunctiva adjacent to the limbus, the aqueous veins and the conjunctival venous system; also recorded: some of the dye exiting the eye through the aqueous veins
Eye bank eyes; injection via small corneal incision, capsulorhexis procedure, sodium salt
  Staining of the anterior capsule of the lens: stain the anterior capsule of the crystalline lens; also recorded: lightly stained
Eye bank eyes; no special imaging techniques, standard operating microscope
  Visibility of dye on the surface of the instilled eye: easily visible to the naked eye of the surgeon
Eye bank eyes; once the conjunctiva was reflected away, sodium salt
  Dye in the deep scleral plexus: observed in the deep scleral plexus; also recorded: deeper vessels are seen
[1]
  Delineation of ocular surface squamous neoplastic lesion: delineated
Porcine eye
  Identification of the lenticule edge: white arrows indicate the complete circular edge of the lenticule
[2]
  Protein binding: low protein binding; also recorded: relatively reduced protein binding
[3]
  Solubility in water: soluble in water

## CC1(C)C(/C=C/C=C/C=C/C=C2\N(CCCCS(=O)(=O)O)c3ccc4ccccc4c3C2(C)C)=[N+](CCCCS(=O)(=O)[O-])c2ccc3ccccc3c21 [Indocyanine Green]
Eye bank eyes
  Appearance (egress) of dye in the outflow vessels after injection into the anterior chamber: the dye appears to remain within the eye

## CCN(CC)c1ccc(C(=C2C=CC(=[N+](CC)CC)C=C2)c2cc(O)c(S(=O)(=O)O)cc2S(=O)(=O)O)cc1 [Patent Blue]
Eye bank eyes
  Appearance (egress) of dye in the outflow vessels after injection into the anterior chamber: the dye appears to remain within the eye

## Cc1cc(-c2ccc(/N=N/c3c(S(=O)(=O)O)cc4cc(S(=O)(=O)O)cc(N)c4c3O)c(C)c2)ccc1/N=N/c1c(S(=O)(=O)O)cc2cc(S(=O)(=O)O)cc(N)c2c1O [Trypan Blue]
Eye bank eyes
  Appearance (egress) of dye in the outflow vessels after injection into the anterior chamber: the dye appears to remain within the eye
Anterior capsule
  Lowest concentration at which staining of the anterior capsule occurs: ≥ 0.0125 wt. %
Ocular structures
  Identifying and visualizing anterior lens capsule and trabecular meshwork: effective
  Identifying or visualizing the canal of Schlemm: not effective

## Brilliant Blue
Eye bank eyes
  Appearance (egress) of dye in the outflow vessels after injection into the anterior chamber: the dye appears to remain within the eye
